The results in this text go back to patent US20040022744A1, “Method of treating dental caries and remineralizing lesions” (priority 2001, published 2004).

Assay [1] has as its system microflora from primary root carious lesions (PRCL). Description: Ozone effect on microflora from primary root caries ex-vivo. Particulars: for Mean ± SE of Total cfu (Log10): after 10 seconds of ozone treatment. Format: cell-based. An excerpt:
Primary root carious lesions (PRCL) are a major clinical problem. The aim of this study was to establish if ozone could achieve effective microbial killing in PRCL. An ozone producing generator (Purezone Ltd., Ipswich, U.K.) was used in this ex-vivo study assessing the use of ozone on PRCL. In this study, soft PRCL requiring restoration were used as these are the most severe type of lesion found in humans. 20 freshly extracted teeth with PRCL requiring restoration were used. After plaque removal using a hand held standard fine nylon fiber sterile toothbrush with sterile water as a lubricant to cleanse the surface, each tooth was then isolated using sterile cotton wool rolls and dried using a dry sterile cotton wool roll. […] Each sample was weighed and immediately placed in 1 ml of Fastidious Anaerobe Broth (FAB). To each 1 ml of FAB containing a biopsy o carious or ozone treated carious dentine, sterile glass beads were added. They were vortexed for 30 seconds to facilitate the extraction of any micro-organisms from the carious dentine and disperse any aggregates. After decimal dilution with FAB, […] of these was spread on Fastidious Anaerobe Agar (LabM, Bury, Lancs., U.K.) supplemented with 5% (V/V) horse blood in an anaerobic chamber at 37° C. for four days. The mean±SE number of each colony type was counted and calculated.
The procedure of Example 2 was repeated except that ozonized water was applied to the lesion for 20 seconds.
The aims of these studies were to evaluate the efficiency of ozone on primary root caries and associated micro-organisms (Streptococcus sobrinus; TH 21 Streptococcus mutans; NCTC 10449). In study 1, 40 soft primary root carious lesions (PRCLs) from freshly extracted teeth were used and randomly divided into two groups to test the exposure to ozone for either 10 or 20 seconds. There was a significant (p<0.001) difference (Mean±SE) between the control samples for either 10 seconds (log10 5.91±0.15) or 20 seconds (log10 6.18±0.21) and ozone treated samples for either 10 seconds (log10 3.57±0.37) or 20 seconds (log10 3.77±0.42). In study 2, 40 sterile saliva coated glass beads were put into bijoux bottles with 3 mls of Todd Hewitt broth for control and test groups. S. sobrinus and S. mutans were inoculated and incubated anaerobically overnight. Each glass bead was washed with 2 mls of PBS. Immediately, 10 seconds of ozone was applied to the glass beads in the test groups. Subsequently, each glass bead in the test and control groups was placed in 3 mls of Todd Hewitt broth with six more sterile glass beads and were vortexed for 30 seconds. […] The number of each colony type was counted and calculated. […]

The test system of assay [2] is Streptococcus sobrinus; TH 21. Description: Ozone on micro-organisms on saliva coated glass beads. The class given is cell-based. Particulars: S. sobrinus on saliva coated glass beads, 10 seconds of ozone. An excerpt: The aims of these studies were to evaluate the efficiency of ozone on primary root caries and associated micro-organisms (Streptococcus sobrinus; TH 21 Streptococcus mutans; NCTC 10449). In study 1, 40 soft primary root carious lesions (PRCLs) from freshly extracted teeth were used and randomly divided into two groups to test the exposure to ozone for either 10 or 20 seconds. There was a significant (p<0.001) difference (Mean±SE) between the control samples for either 10 seconds (log10 5.91±0.15) or 20 seconds (log10 6.18±0.21) and ozone treated samples for either 10 seconds (log10 3.57±0.37) or 20 seconds (log10 3.77±0.42). In study 2, 40 sterile saliva coated glass beads were put into bijoux bottles with 3 mls of Todd Hewitt broth for control and test groups. S. sobrinus and S. mutans were inoculated and incubated anaerobically overnight. Each glass bead was washed with 2 mls of PBS. Immediately, 10 seconds of ozone was applied to the glass beads in the test groups. Subsequently, each glass bead in the test and control groups was placed in 3 mls of Todd Hewitt broth with six more sterile glass beads and were vortexed for 30 seconds. After decimal dilutions, […] were spread on blood agar plates supplemented with 5% (V/V) horse blood and placed in an anaerobic chamber at 37° C. for two days. The number of each colony type was counted and calculated. […]

On to `O=[O+][O-]` [ozone], for which the “percentage of micro-organisms killed” value in assay [1] (10 seconds of ozone, PRCL ex vivo) is “more than 99%”. In addition, the “Mean ± SE of Total cfu (Log10)” value stood at 3.57±0.37 Log10 in assay [1] (soft PRCL of extracted teeth) and 3.57 ± 0.37 Log10 in assay [1] (soft PRCL of extracted teeth, listed as Ozone). The “Total cfu (log10), mean±SE” value in assay [1] (after 20 seconds of ozone treatment, soft PRCL of extracted teeth) came to 3.77±0.42 log10. Moreover, in assay [2], the “colony count (log10), Mean ±SE” value stood at 1.09±0.36 log10.
